# Test system: Yersinia pestis
# Experiment: Antimicrobial activity against Yersinia pestis BEI/ATCC A1122 measured after overnight incubation
# Type: functional
row,Compound,MIC [µg/mL]
1,Cc1c(C(=O)Nc2nnc(-c3cc(Cl)ccc3Cl)o2)c(-c2ccccc2)nc2ccccc12,> 12.5
2,COc1ccc(Cl)c(C(=O)Nc2nnc(-c3ccc(Br)cc3)o2)c1,3.1
3,O=C(NCc1c(-c2ccc(Cl)cc2)nc2n1CCS2)c1cccs1,> 12.5
4,O=C(O)c1cn(C2CC2)c2cc(N3CCNCC3)c(F)cc2c1=O [CIPROFLOXACIN],0.04
5,O=C(Cc1ccc(NC(=O)c2ccc(F)cc2Cl)cc1)NCc1cccs1,> 12.5
6,Cc1sc2ccsc2[n+]1CC(=O)O.[Br-],> 12.5
7,COc1cccc(C(=O)Nc2ccc(-c3cn4ccsc4n3)cc2)c1OC,> 12.5
8,Cc1ccc(C)c(-c2nnc(NC(=O)c3cccc(Cl)c3)o2)c1,> 12.5
9,Cc1ccc(C)c(-c2nnc(NC(=O)c3cc(Cl)sc3Cl)o2)c1,3.1
10,O=C(Nc1cccc(C(F)(F)F)c1)N1CCN(c2ccc3nncn3n2)CC1,> 12.5

# Test system: Bacillus anthracis
# Experiment: Bactericidal activity against Bacillus anthracis deltaANR measured after 72 hrs
# Type: functional
row,Compound,MBC [µg/mL]
1,Cc1c(C(=O)Nc2nnc(-c3cc(Cl)ccc3Cl)o2)c(-c2ccccc2)nc2ccccc12,> 12.5
2,COc1ccc(Cl)c(C(=O)Nc2nnc(-c3ccc(Br)cc3)o2)c1,> 12.5
3,Cc1ccc(C)c(-c2nnc(NC(=O)c3cccc(Cl)c3)o2)c1,> 12.5
4,Cc1ccc(C)c(-c2nnc(NC(=O)c3cc(Cl)sc3Cl)o2)c1,> 12.5

# Test system: Francisella tularensis
# Experiment: Antimicrobial activity against Francisella tularensis BEI/ATCC UTAH 112 measured after overnight incubation
# Type: functional
row,Compound,MIC [µg/mL]
1,Cc1c(C(=O)Nc2nnc(-c3cc(Cl)ccc3Cl)o2)c(-c2ccccc2)nc2ccccc12,3.1
2,CC(=O)NC[C@H]1CN(c2ccc(N3CCOCC3)c(F)c2)C(=O)O1 [LINEZOLID],32
3,COc1ccc(Cl)c(C(=O)Nc2nnc(-c3ccc(Br)cc3)o2)c1,1.2
4,O=C(NCc1c(-c2ccc(Cl)cc2)nc2n1CCS2)c1cccs1,> 12.5
5,COc1cccc(-c2nc(Cn3nnc(C(=O)NCc4ccc(Cl)cc4)c3N)c(C)o2)c1OC,> 12.5
6,O=C(O)c1cn(C2CC2)c2cc(N3CCNCC3)c(F)cc2c1=O [CIPROFLOXACIN],0.03
7,O=C(Cc1ccc(NC(=O)c2ccc(F)cc2Cl)cc1)NCc1cccs1,> 12.5
8,Cc1sc2ccsc2[n+]1CC(=O)O.[Br-],> 12.5
9,COc1cccc(C(=O)Nc2ccc(-c3cn4ccsc4n3)cc2)c1OC,> 12.5
10,Cc1ccc(C)c(-c2nnc(NC(=O)c3cccc(Cl)c3)o2)c1,6.3
11,Cc1ccc(C)c(-c2nnc(NC(=O)c3cc(Cl)sc3Cl)o2)c1,1.6
12,CCCCC(CC)CNc1nc2c(c(=O)[nH]c(=O)n2C)n1CC(O)COc1ccc(C)c(C)c1 (stereo unspecified),> 12.5
13,O=C(Nc1cccc(C(F)(F)F)c1)N1CCN(c2ccc3nncn3n2)CC1,> 12.5

# Test system: Staphylococcus aureus
# Experiment: Antimicrobial activity against methicillin-sensitive Staphylococcus aureus ATCC 29213 measured after overnight incubation
# Type: functional
row,Compound,MIC [µg/mL]
1,Cc1c(C(=O)Nc2nnc(-c3cc(Cl)ccc3Cl)o2)c(-c2ccccc2)nc2ccccc12,> 12.5
2,COc1ccc(Cl)c(C(=O)Nc2nnc(-c3ccc(Br)cc3)o2)c1,1.56
3,O=C(O)c1cn(C2CC2)c2cc(N3CCNCC3)c(F)cc2c1=O [CIPROFLOXACIN],0.35
4,Cc1ccc(C)c(-c2nnc(NC(=O)c3cccc(Cl)c3)o2)c1,0.2
5,Cc1ccc(C)c(-c2nnc(NC(=O)c3cc(Cl)sc3Cl)o2)c1,0.78

# Test system: Bacillus anthracis
# Experiment: Antimicrobial activity against Bacillus anthracis deltaANR measured after overnight incubation
# Type: functional
row,Compound,MIC [µg/mL]
1,Cc1c(C(=O)Nc2nnc(-c3cc(Cl)ccc3Cl)o2)c(-c2ccccc2)nc2ccccc12,0.1
2,COc1ccc(Cl)c(C(=O)Nc2nnc(-c3ccc(Br)cc3)o2)c1,0.78
3,O=C(Oc1ccccc1)Oc1ccc(N(C(=O)Oc2ccccc2)S(=O)(=O)c2ccc3ccccc3c2)cc1Br,> 12.5
4,O=C(NCc1c(-c2ccc(Cl)cc2)nc2n1CCS2)c1cccs1,> 12.5
5,COc1cccc(-c2nc(Cn3nnc(C(=O)NCc4ccc(Cl)cc4)c3N)c(C)o2)c1OC,> 12.5
6,O=C(O)c1cn(C2CC2)c2cc(N3CCNCC3)c(F)cc2c1=O [CIPROFLOXACIN],0.11
7,O=C(Cc1ccc(NC(=O)c2ccc(F)cc2Cl)cc1)NCc1cccs1,> 12.5
8,Cc1sc2ccsc2[n+]1CC(=O)O.[Br-],> 12.5
9,NS(=O)(=O)c1ccc(NC(=O)CSc2nnc(-c3ccccc3)o2)cc1,> 12.5
10,COc1cccc(C(=O)Nc2ccc(-c3cn4ccsc4n3)cc2)c1OC,> 12.5
11,Cc1ccc(C)c(-c2nnc(NC(=O)c3cccc(Cl)c3)o2)c1,0.1
12,Cc1ccc(C)c(-c2nnc(NC(=O)c3cc(Cl)sc3Cl)o2)c1,0.05
13,O=C(Nc1cccc(C(F)(F)F)c1)N1CCN(c2ccc3nncn3n2)CC1,> 12.5

# Test system: Escherichia coli
# Experiment: Antimicrobial activity against TolC-deficient Escherichia coli BW25113 measured after overnight incubation
# Type: functional
row,Compound,MIC [µg/mL]
1,Cc1c(C(=O)Nc2nnc(-c3cc(Cl)ccc3Cl)o2)c(-c2ccccc2)nc2ccccc12,0.39
2,COc1ccc(Cl)c(C(=O)Nc2nnc(-c3ccc(Br)cc3)o2)c1,0.39
3,Cc1ccc(C)c(-c2nnc(NC(=O)c3cccc(Cl)c3)o2)c1,0.02
4,Cc1ccc(C)c(-c2nnc(NC(=O)c3cc(Cl)sc3Cl)o2)c1,0.07

# Test system: not listed separately
# Experiment: Ratio of MIC for Yersinia pestis BEI/ATCC A1122 to MIC for Bacillus anthracis deltaANR
# Type: functional
row,Compound,Ratio
1,Cc1c(C(=O)Nc2nnc(-c3cc(Cl)ccc3Cl)o2)c(-c2ccccc2)nc2ccccc12,10
2,COc1ccc(Cl)c(C(=O)Nc2nnc(-c3ccc(Br)cc3)o2)c1,10
3,Cc1ccc(C)c(-c2nnc(NC(=O)c3cccc(Cl)c3)o2)c1,10
4,Cc1ccc(C)c(-c2nnc(NC(=O)c3cc(Cl)sc3Cl)o2)c1,10

# Test system: Bacillus anthracis
# Experiment: Inhibition of recombinant Bacillus anthracis PurE assessed as change in melting temperature at 100 uM after 10 to 30 mins by high-throughput thermal shift screening
row,Compound,ΔTm [°C]
1,Cc1c(C(=O)Nc2nnc(-c3cc(Cl)ccc3Cl)o2)c(-c2ccccc2)nc2ccccc12,7.9
2,COc1ccc(Cl)c(C(=O)Nc2nnc(-c3ccc(Br)cc3)o2)c1,1.4
3,O=C(Oc1ccccc1)Oc1ccc(N(C(=O)Oc2ccccc2)S(=O)(=O)c2ccc3ccccc3c2)cc1Br,5.2
4,O=C(NCc1c(-c2ccc(Cl)cc2)nc2n1CCS2)c1cccs1,4.7
5,COc1cccc(-c2nc(Cn3nnc(C(=O)NCc4ccc(Cl)cc4)c3N)c(C)o2)c1OC,1.2
6,O=C(Cc1ccc(NC(=O)c2ccc(F)cc2Cl)cc1)NCc1cccs1,1.8
7,Cc1sc2ccsc2[n+]1CC(=O)O.[Br-],4.4
8,NS(=O)(=O)c1ccc(NC(=O)CSc2nnc(-c3ccccc3)o2)cc1,1.5
9,COc1cccc(C(=O)Nc2ccc(-c3cn4ccsc4n3)cc2)c1OC,3
10,Cc1ccc(C)c(-c2nnc(NC(=O)c3cccc(Cl)c3)o2)c1,2.4
11,Cc1ccc(C)c(-c2nnc(NC(=O)c3cc(Cl)sc3Cl)o2)c1,1.1
12,CCCCC(CC)CNc1nc2c(c(=O)[nH]c(=O)n2C)n1CC(O)COc1ccc(C)c(C)c1 (stereo unspecified),1.8
13,Nc1c([N+](=O)[O-])ncn1[C@@H]1O[C@H](COP(=O)(O)O)[C@@H](O)[C@H]1O,5.6
14,O=C(Nc1cccc(C(F)(F)F)c1)N1CCN(c2ccc3nncn3n2)CC1,3.1

# Test system: not listed separately
# Experiment: Ratio of MIC for Francisella tularensis BEI/ATCC UTAH 112 to MIC for Bacillus anthracis deltaANR
# Type: functional
row,Compound,Ratio
1,Cc1c(C(=O)Nc2nnc(-c3cc(Cl)ccc3Cl)o2)c(-c2ccccc2)nc2ccccc12,10
2,COc1ccc(Cl)c(C(=O)Nc2nnc(-c3ccc(Br)cc3)o2)c1,10
3,Cc1ccc(C)c(-c2nnc(NC(=O)c3cccc(Cl)c3)o2)c1,10
4,Cc1ccc(C)c(-c2nnc(NC(=O)c3cc(Cl)sc3Cl)o2)c1,10

# Test system: Bacillus anthracis
# Experiment: Ratio of MBC to MIC for against Bacillus anthracis deltaANR measured after 72 hrs
# Type: functional
row,Compound,MBC/MIC ratio [µg/mL]
1,Cc1c(C(=O)Nc2nnc(-c3cc(Cl)ccc3Cl)o2)c(-c2ccccc2)nc2ccccc12,> 4
2,COc1ccc(Cl)c(C(=O)Nc2nnc(-c3ccc(Br)cc3)o2)c1,> 4
3,Cc1ccc(C)c(-c2nnc(NC(=O)c3cccc(Cl)c3)o2)c1,> 4
4,Cc1ccc(C)c(-c2nnc(NC(=O)c3cc(Cl)sc3Cl)o2)c1,> 4

# Test system: Staphylococcus aureus
# Experiment: Antimicrobial activity against methicillin-resistant Staphylococcus aureus ATCC 43300 measured after overnight incubation
# Type: functional
row,Compound,MIC [µg/mL]
1,Cc1c(C(=O)Nc2nnc(-c3cc(Cl)ccc3Cl)o2)c(-c2ccccc2)nc2ccccc12,6.25
2,COc1ccc(Cl)c(C(=O)Nc2nnc(-c3ccc(Br)cc3)o2)c1,3.13
3,O=C(O)c1cn(C2CC2)c2cc(N3CCNCC3)c(F)cc2c1=O [CIPROFLOXACIN],0.34
4,Cc1ccc(C)c(-c2nnc(NC(=O)c3cccc(Cl)c3)o2)c1,> 12.5
5,Cc1ccc(C)c(-c2nnc(NC(=O)c3cc(Cl)sc3Cl)o2)c1,1.95

# Biological target: not listed separately
# Experiment: Binding affinity to Gallus gallus PurE
row,Compound,Ki [nM]
1,Nc1c([N+](=O)[O-])ncn1[C@@H]1O[C@H](COP(=O)(O)O)[C@@H](O)[C@H]1O,0.34

# Test system: Bacillus anthracis
# Experiment: Inhibition of recombinant Bacillus anthracis PurE assessed as inhibition of 4-carboxy-amino-imidazole ribonucleotide to N5-carboxy-amino-imidazole ribonucleotide conversion preincubated for 1.5 mins at 10 uM by mass spectrometry analysis
row,Compound,inhibition [%]
1,Cc1c(C(=O)Nc2nnc(-c3cc(Cl)ccc3Cl)o2)c(-c2ccccc2)nc2ccccc12,19
2,COc1ccc(Cl)c(C(=O)Nc2nnc(-c3ccc(Br)cc3)o2)c1,15
3,O=C(Oc1ccccc1)Oc1ccc(N(C(=O)Oc2ccccc2)S(=O)(=O)c2ccc3ccccc3c2)cc1Br,28
4,O=C(NCc1c(-c2ccc(Cl)cc2)nc2n1CCS2)c1cccs1,11
5,COc1cccc(-c2nc(Cn3nnc(C(=O)NCc4ccc(Cl)cc4)c3N)c(C)o2)c1OC,6
6,O=C(Cc1ccc(NC(=O)c2ccc(F)cc2Cl)cc1)NCc1cccs1,20
7,Cc1sc2ccsc2[n+]1CC(=O)O.[Br-],17
8,NS(=O)(=O)c1ccc(NC(=O)CSc2nnc(-c3ccccc3)o2)cc1,12
9,COc1cccc(C(=O)Nc2ccc(-c3cn4ccsc4n3)cc2)c1OC,17
10,Cc1ccc(C)c(-c2nnc(NC(=O)c3cccc(Cl)c3)o2)c1,19
11,Cc1ccc(C)c(-c2nnc(NC(=O)c3cc(Cl)sc3Cl)o2)c1,20
12,CCCCC(CC)CNc1nc2c(c(=O)[nH]c(=O)n2C)n1CC(O)COc1ccc(C)c(C)c1 (stereo unspecified),7
13,Nc1c([N+](=O)[O-])ncn1[C@@H]1O[C@H](COP(=O)(O)O)[C@@H](O)[C@H]1O,24
14,O=C(Nc1cccc(C(F)(F)F)c1)N1CCN(c2ccc3nncn3n2)CC1,14

# Test system: not listed separately
# Experiment: Binding affinity to Escherichia coli PurE
row,Compound,Ki [nM]
1,Nc1c([N+](=O)[O-])ncn1[C@@H]1O[C@H](COP(=O)(O)O)[C@@H](O)[C@H]1O,500
